Results on eleven molecules are retold here after patent publication US7495013B2, “Chemical compounds” (AstraZeneca AB, priority 2004, dated 2009).

Where a name gives a salt, the structure may show the parent alone.

T1 sequence (P35367 whole entry): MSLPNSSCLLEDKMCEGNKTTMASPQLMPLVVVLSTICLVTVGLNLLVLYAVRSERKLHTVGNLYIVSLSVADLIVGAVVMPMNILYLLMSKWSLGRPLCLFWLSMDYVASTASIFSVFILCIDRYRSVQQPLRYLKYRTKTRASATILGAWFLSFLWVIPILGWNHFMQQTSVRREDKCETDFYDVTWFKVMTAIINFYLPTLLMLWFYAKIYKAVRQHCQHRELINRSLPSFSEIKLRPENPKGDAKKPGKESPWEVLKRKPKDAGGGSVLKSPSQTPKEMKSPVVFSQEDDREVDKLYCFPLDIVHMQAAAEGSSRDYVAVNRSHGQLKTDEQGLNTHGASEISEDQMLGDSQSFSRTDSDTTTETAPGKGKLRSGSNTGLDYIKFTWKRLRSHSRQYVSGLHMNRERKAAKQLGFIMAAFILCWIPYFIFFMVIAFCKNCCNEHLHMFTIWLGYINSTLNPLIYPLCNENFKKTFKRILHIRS

This assay has as its target T1, human H1 receptor (Homo sapiens, UniProt P35367).
T1 construct: purchased Euroscreen SA, Brussels, Belgium ES-390-M; host or cells: CHO-K1
Briefly: Histamine H1 receptor binding, competition displacement of [3H]-pyrilamine. Conditions: competition displacement of 1 nM [3H]-pyrlamine; 2 μg membranes from recombinant CHO-K1 cells expressing the human H1 receptor; 1 hour at room temperature; read-out: H1 pKi (converted). On the technique in general: In a radioligand displacement assay an active substance lowers the binding of a labelled ligand.
As for `Cc1c(Cl)ccc(OC2CCN(CC3CCN([C@@H](Cc4ccccc4)C(=O)O)CC3)CC2)c1Cl` [Example 37, (αS)4-[[4-(2,4Dichloro-3-methylphenoxy)-1-piperidinyl]methyl]-α-(phenylmethyl)-1-piperidineacetic acid], the Ki is 31.6 nM.

On to `O=C(O)[C@H](Cc1cccnc1)N1CCC(CN2CCC(Oc3ccc(Cl)c(Cl)c3)CC2)CC1` [Example 42, (αS)-α-[4-[[4-(3,4-Dichlorophenoxy)-1-piperidinyl]methyl]-1-piperidinyl]-3-pyridinepropanoic acid], for which the Ki is 50.1 nM.

For the molecule `Cc1c(OC2CCN(CC3CCN([C@@H](Cc4ccccc4C#N)C(=O)O)CC3)CC2)ccc(Cl)c1Cl` [Example 56, (αS)-α-[(2-Cyanophenyl)methyl]-4-[[4-(3,4-dichloro-2-methylphenoxy)-1-piperidinyl]methyl]-1-piperidineacetic acid], the Ki is 12.6 nM.

On to `Cc1c(OC2CCN(CC3CCN([C@@H](Cc4cccc(C#N)c4)C(=O)O)CC3)CC2)ccc(Cl)c1Cl` [Example 57, (αS)-α-[(3-Cyanophenyl)methyl]-4-[[4-(3,4-dichloro-2-methylphenoxy)-1-piperidinyl]methyl]-1-piperidineacetic acid], for which the Ki is 20 nM.

Regarding `O=C(O)[C@H]([C@H](O)c1ccccc1)N1CCC(CN2CCC(Oc3ccc(Cl)c(Cl)c3)CC2)CC1` [Example 58, (αS)-4-[[4-(3,4-Dichlorophenoxy)-1-piperidinyl]methyl]-α-[(R)-hydroxyphenylmethyl]-1-piperidineacetic acid], the Ki was 126 nM.

Consider `C[C@@H](c1ccccc1)[C@@H](C(=O)O)N1CCC(CN2CCC(Oc3ccc(Cl)c(Cl)c3)CC2)CC1` [Example 59, (αS)-4-[[4-(3,4-Dichlorophenoxy)-1-piperidinyl]methyl]-α-[(1S)-1-phenylethyl]-1-piperidineacetic acid], for which the Ki is 63.1 nM.

In the case of `O=C(O)[C@H](CCc1ccccc1)N1CCC(CN2CCC(Oc3ccc(Cl)c(Cl)c3)CC2)CC1` [Example 66, (αS)-4-[[4-(3,4-Dichlorophenoxy)-1-piperidinyl]methyl]-α-(2-phenylethyl)-1-piperidineacetic acid], the Ki is 63.1 nM.

`Cc1c(Cl)ccc(OC2CCN(CC3CCN([C@@H](Cc4ccccc4)C(=O)O)CC3)CC2)c1Cl` [Example 71, (αS)-4-[[4-(2,4-Dichloro-3-methylphenoxy-1-piperidinyl]methyl]-α-(phenylmethyl)-1-piperidineacetic acid, dihydrochloride salt]: the Ki was 158 nM.

Consider `O=C(O)[C@H](CCc1ccccc1)N1CCC(CN2CCC(Oc3ccc(Cl)c(Cl)c3)CC2)CC1` [Example 78, (αS)-4-[[4-(3,4-Dichlorophenoxy)-1-piperidinyl]methyl]-α-(2-phenylethyl)-1-piperidineacetic acid dihydrochloride], for which the Ki is 126 nM.

With `O=C(O)[C@H](Cc1cccs1)N1CCC(CN2CCC(Oc3ccc(Cl)c(Cl)c3)CC2)CC1` [Example 80, (αS)-4-[[4-(3,4Dichlorophenoxy)-1-piperidinyl]methyl]-α-(2-thienylmethyl)-1-piperidineacetic acid], the Ki is 251 nM.

`Cn1cncc1C[C@@H](C(=O)O)N1CCC(CN2CCC(Oc3ccc(Cl)c(Cl)c3)CC2)CC1` [Example 81, (αS)-4-[[4-(3,4-Dichlorophenoxy)-1-piperidinyl]methyl]-α-[(1-methyl-1H-imidazol-5-yl)methyl]-1-piperidineacetic acid]: the Ki is 398 nM.
